Measured values as given in article PMC11855827, “High-Throughput Screening of Five Compound Libraries for Anthelmintic Activity and Toxicity Leads to the Discovery of Two Flavonoid Compounds” (International Journal of Molecular Sciences, 2025).
“And” between values parts separate entries of the source, which are not always exact repeats. Equal entries are not always repeated. Where two headings read alike, the source gives them in different places. Where a SMILES comes first, the peptide text is derived from it.

System: C. elegans
[1] = Table S2, C. elegans SS assay, 110 μM, 0 h, averages of 4 data points
[2] = Table S2, C. elegans SS assay, 110 μM, 24 h, averages of 4 data points

Row | Compound | Percentage of motility inhibition 0 h (110 µM) [%] | Percentage of motility inhibition 24 h (110 µM) [%] | Percentage of motility inhibition 0 h [1] [%] | Percentage of motility inhibition 24 h [2]
1 | CC(C)=C[C@H]1C[C@](C)(O)[C@@H]2[C@H]3CC[C@@H]4[C@@]5(C)CC[C@H](O[C@@H]6OC[C@H](O)[C@H](O[C@@H]7O[C@H](CO[C@@H]8O[C@H](CO)[C@@H](O)[C@H](O)[C@H]8O)[C@@H](O)[C@H](O)[C@H]7O[C@@H]7OC[C@@H](O)[C@H](O)[C@H]7O)[C@H]6O[C@@H]6O[C@@H](C)[C@H](O)[C@@H](O)[C@H]6O)C(C)(C)[C@@H]5CC[C@@]4(C)[C@@]34CO[C@@]2(C4)O1 [Jujuboside A] | 0 | 0 |  | 
2 | C[C@@H]1CC[C@]2(C(=O)O)CC[C@]3(C)C(=CC[C@@H]4[C@@]5(C)CC[C@H](O[C@@H]6OC[C@H](O)[C@H](O)[C@H]6O)C(C)(C)[C@@H]5CC[C@]43C)[C@@H]2[C@]1(C)O [Ziyuglycoside II] |  |  | 11 | 14%
3 | CN1[C@@H]2CC(O)C[C@H]1[C@@H]1O[C@@H]12 (stereo partly shown) [Scopine] |  |  | 13 | 5%
4 | COc1ccc(-c2cc(=O)c3c(O)cc(O[C@@H]4O[C@H](CO[C@@H]5O[C@@H](C)[C@H](O)[C@@H](O)[C@H]5O)[C@@H](O)[C@H](O)[C@H]4O)cc3o2)cc1O [Diosmin] |  |  |  | 10% and 4%
5 | C/C1=C2/[N-][C@H]([C@H](CC(N)=O)[C@@]2(C)CCC(=O)NC[C@@H](C)OP(=O)([O-])O[C@H]2[C@@H](O)[C@@H](n3cnc4cc(C)c(C)cc43)O[C@@H]2CO)[C@]2(C)N=C(/C(C)=C3N=C(/C=C4N=C1[C@@H](CCC(N)=O)C\4(C)C)[C@@H](CCC(N)=O)[C@]\3(C)CC(N)=O)[C@@H](CCC(N)=O)[C@]2(C)CC(N)=O.[CH2-][C@H]1O[C@@H](n2cnc3c(N)ncnc32)[C@H](O)[C@@H]1O.[Co] [Adenosylcobalamin] |  |  | 20 | 22%
6 | Nc1nc(NC2CC2)c2ncn([C@H]3C=C[C@@H](CO)C3)c2n1.Nc1nc(NC2CC2)c2ncn([C@H]3C=C[C@@H](CO)C3)c2n1.O=S(=O)(O)O [Abacavir (sulfate)] |  |  | 29 | 2%
7 | CC[C@@H](CO)NCCN[C@@H](CC)CO.Cl.Cl [Ethambutol (dihydrochloride)] |  |  | 26 | 6%
8 | COc1cc2c(cc1OC)-c1cc3ccc4c(c3c[n+]1CC2)OCO4.[Cl-] [Epiberberine (chloride)] |  |  | 22 | 8%
9 | COC(=O)C1=CO[C@@H](O[C@@H]2O[C@H](CO)[C@@H](O)[C@H](O)[C@H]2O)[C@H]2[C@@H]1C(=O)C[C@@H]2C [Verbenalin] |  |  | 60 | 44%
10 | C=C1C(=O)O[C@H]2C[C@@H](C)[C@@H]3[C@@H](OC(C)=O)C[C@H](O)[C@@]3(C)[C@@H](OC(C)=O)[C@H]12 [Britannin] |  |  | 14 | 5%
11 | CC[C@@]1(O)C(=O)OCc2c1cc1n(c2=O)Cc2cc3cc(OC)ccc3nc2-1 [10‐Methoxycamptothecin] |  |  | 0 | 0%
12 | COc1cc(O)c2c(=O)cc(-c3ccccc3)oc2c1 [Tecto chrysin] |  |  | 0 | 11%
13 | CC(=O)C1CCC2C3CC=C4CC(OS(=O)(=O)O)CCC4(C)C3CCC12C (stereo not shown) [Pregnenolone monosulfate] |  |  | 0 | 4%
14 | NCC(=O)N1CCC[C@H]1C(=O)O [H‐Gly‐Pro‐OH] (H-Gly-Pro-OH) |  |  | 8 | 4%
15 | O.O.O=c1c(O)c(-c2ccc(O)c(O)c2)oc2cc(O)cc(O)c12 [Quercetin (dihydrate)] |  |  | 0 | 3%
16 | Corylin |  |  | 25 | 15%
17 | CC(=O)OC[C@H]1O[C@@H](O[C@@H]2[C@@H](O)[C@H](O[C@@H]3[C@H](O)C(C)(C)C[C@H]4C5=CC[C@@H]6[C@@]7(C)CC[C@H](O[C@@H]8O[C@H](C(=O)O)[C@@H](O)[C@H](O)[C@H]8O[C@@H]8O[C@H](CO)[C@H](O)[C@H](O)[C@H]8O[C@@H]8O[C@H](CO)[C@@H](O)[C@H](O)[C@H]8O)[C@](C)(CO)[C@@H]7CC[C@@]6(C)[C@]5(C)CC[C@@]34C)OC[C@@H]2O)[C@H](OC(C)=O)[C@@H](OC(C)=O)[C@@H]1OC(C)=O [Soyasaponin Ab] |  |  | 21 | 4%
18 | CC(C)[C@@H]1[C@H]2OC(=O)[C@@H]1[C@@H]1CC[C@@H]3CN(C)[C@H]2[C@@]31C [Dendrobine] |  |  | 0 | 3%
19 | COc1cc2c(=O)c(-c3ccc(O)cc3)coc2cc1O[C@@H]1O[C@H](CO)[C@@H](O)[C@H](O)[C@H]1O [Glycitin] |  |  | 30 | 4%
20 | O=C1CC[C@H](NC(=O)Cc2ccccc2)C(=O)N1 [Antineoplaston A10] |  |  | 0 | 0%
21 | COc1cc2c(cc1OC)-c1cc3ccc(OC)c(O)c3c[n+]1CC2.[OH-] [Palmaturbine (hydroxide)] |  |  | 0 | 8%
22 | CCCCCCCCCCCC(=O)O [Lauric acid] |  |  | 58 | 61%
23 | C[C@@H]1O[C@@H](OC[C@H]2O[C@@H](Oc3c(-c4ccc(O)c(O)c4)oc4cc(O)cc(O)c4c3=O)[C@H](O)[C@@H](O)[C@@H]2O)[C@H](O)[C@H](O)[C@H]1O.O.O.O [Rutin (trihydrate)] |  |  | 2 | 9%

Row | Compound | Percentage of motility inhibition 0 h (110 µM) [%] | Percentage of motility inhibition 24 h (110 µM) [%] | Percentage of motility inhibition 0 h [1] [%] | Percentage of motility inhibition 24 h [2]
24 | COc1cc2c(cc1OC)-c1cc3ccc(OC)c(OC)c3c[n+]1CC2.[OH-] [Palmatine (hydroxide)] |  |  | 1 | 0%
25 | Penitrem A |  |  | 0 | 14%
26 | Hydrastinine (hydrochloride) |  |  | 7 | 0%
27 | COC(=O)C1=CO[C@@H](C)[C@H]2CN3CC[C@]4(C(=O)Nc5ccccc54)[C@@H]3C[C@H]12 [Mitraphylline] |  |  | 0 | 21%
28 | CC1=C(CO)C(C)(C)CCC1 [β-Cyclogeraniol] |  |  | 15 | 48%
29 | COC[C@@]12CC[C@H](OC)[C@]34C([C@H]([C@H](OC)[C@H]13)[C@]1(O)[C@H]3[C@@H](OC(=O)c5ccccc5)[C@](O)(C[C@H]34)[C@@H](OC)[C@@H]1O)N(C)C2 [Benzoylhypaconine] |  |  | 5 | 0%
30 | CC(=O)[O-].CC(=O)[O-].O.O.O.O.[Mg+2] [Magnesium acetate tetrahydrate] |  |  | 2 | 0%
31 | Larixyl acetate |  |  | 0 | 44%
32 | O=C(O)[C@H]1O[C@@H](Oc2cc(O)c3c(=O)cc(-c4ccccc4)oc3c2)[C@H](O)[C@@H](O)[C@@H]1O [Chrysin‐7‐O‐glucuronide] |  |  | 0 | 37%
33 | CC1(C)CC[C@]2(C(=O)O)CC[C@]3(C)C(=CC[C@@H]4[C@@]5(C)CC[C@H](O[C@@H]6O[C@H](C(=O)O)[C@@H](O)[C@H](O[C@@H]7OC[C@@H](O)[C@H](O)[C@H]7O[C@@H]7O[C@H](CO)[C@@H](O)[C@H](O)[C@H]7O)[C@H]6O)C(C)(C)[C@@H]5CC[C@]43C)[C@@H]2C1 |  |  | 0 | 0%
34 | C[C@@]1(O)[C@H](O)[C@@H](CO)O[C@H]1n1ccc(N)nc1=O [NM107] |  |  | 37 | 27%
35 | Tarasaponin VI |  |  | 0 | 0%
36 | CC(C)(O)CCC(=O)[C@](C)(O)C1[C@H](O)C[C@@]2(C)[C@@H]3CC=C4[C@@H](C[C@H](O)[C@@H](O)C4(C)C)[C@]3(C)C(=O)C[C@]12C (stereo partly shown) [Cucurbitacin IIb] |  |  | 7 | 43%
37 | SN‐38 |  |  | 34 | 3%
38 | CC(=O)O[C@H](C[C@@H](C)[C@H]1C(=O)[C@H](O)[C@@]2(C)[C@@H]3CC[C@H]4C(C)(C)[C@@H](O[C@@H]5OC[C@H](O)[C@H](O)[C@H]5O)CC[C@@]45C[C@@]35CC[C@]12C)[C@@H]1OC1(C)C [Acetylshengmanol Arabinoside] |  |  | 30 | 30%
39 | CC(C)=CCC[C@]1(C)CC[C@]2(C)[C@H]3CC[C@@]4(C)[C@@H](CCC(=O)[C@@H]4C)[C@]3(C)CC[C@@]2(C)C1 [Shionone] |  |  | 24 | 52%
40 | O[C@H]1CCN2Cc3ccccc3N=C12 (racemic) [(±)‐Vasicine] |  |  | 3 | 31%
41 | O=c1cc(-c2ccc(O)cc2)oc2cccc(O)c12 [4',5‐Dihydroxyflavone] |  |  | 39 | 6%
42 | CC(=O)c1ccccc1O [2'‐Hydroxyacetophenone] |  |  | 0 | 1%
43 | Cn1cc(C(N)=O)ccc1=O [Nudifloramide] |  |  | 0 | 0%
44 | C[C@H]1[C@H](C)CC[C@]2(C(=O)O)CC[C@]3(C)C(=CC[C@@H]4[C@@]5(C)CC[C@H](O)C(C)(C)[C@@H]5CC[C@]43C)[C@H]12 [3-Epiursolic Acid] |  |  | 3 | 18%
45 | O=c1cccc2n1C[C@H]1C[C@@H]2CN2CCCC[C@@H]12 [Thermopsine] |  |  | 0 | 2%
46 | [Cl-].c1c2c(cc3c1OCO3)-c1cc3cc4c(cc3c[n+]1CC2)OCO4 [Pseudocoptisine (chloride)] |  |  | 0 | 14%
